Data on seven molecules can be found in paper PMC4456413, “Trypanothione Reductase: A Target Protein for a Combined In Vitro and In Silico Screening Approach” (PLoS Neglected Tropical Diseases, 2015).

Data set [1] has as its system bloodstream T. brucei (strain 449). In words: Cell culture activity determination by counting living cells. The data set is classed as cell-based. The settings on record: for EC50: Trypanosoma brucei, read-out: EC50, inhibition of parasite proliferation (living cells counted). As to the method:
(§1) The compounds used in the enzymatic inhibitory testing and the in silico screening were available as stock solutions in DMSO or in solid from a compound library maintained at MSD. All IC50 determinations were performed starting from solid material. Recombinant T. cruzi TR (CL strain) was prepared using a published expression system. TS2 was prepared enzymatically as described previously. For antiparasitic studies, culture-adapted bloodstream T. brucei parasites of cell line 449 were used. These cells are descendants of strain Lister 427 stably transfected with the gene for the tetracycline repressor.
Compounds were dissolved in DMSO to 10 mM stock solutions and added to bloodstream T. brucei (strain 449) in concentrations of 100, 50, 5, 0.5, and 0.05 μM in 24-well plates. The final DMSO content in the cultures was 1, 0.5, 0.05, 0.005 and 0.0005%, respectively. The initial cell density was 2500 cells/ml. After 48 h and 72 h incubation at 37°C in HMI-9 medium, viable cells were counted in a Neubauer chamber. The assay was performed in triplicate. The parasite strain and the culture conditions are described in the literature.

Data set [2] deals with T1, T. cruzi TR (Trypanosoma cruzi, UniProt P28593).
T1 construct: made in house
T1 sequence (P28593 whole entry): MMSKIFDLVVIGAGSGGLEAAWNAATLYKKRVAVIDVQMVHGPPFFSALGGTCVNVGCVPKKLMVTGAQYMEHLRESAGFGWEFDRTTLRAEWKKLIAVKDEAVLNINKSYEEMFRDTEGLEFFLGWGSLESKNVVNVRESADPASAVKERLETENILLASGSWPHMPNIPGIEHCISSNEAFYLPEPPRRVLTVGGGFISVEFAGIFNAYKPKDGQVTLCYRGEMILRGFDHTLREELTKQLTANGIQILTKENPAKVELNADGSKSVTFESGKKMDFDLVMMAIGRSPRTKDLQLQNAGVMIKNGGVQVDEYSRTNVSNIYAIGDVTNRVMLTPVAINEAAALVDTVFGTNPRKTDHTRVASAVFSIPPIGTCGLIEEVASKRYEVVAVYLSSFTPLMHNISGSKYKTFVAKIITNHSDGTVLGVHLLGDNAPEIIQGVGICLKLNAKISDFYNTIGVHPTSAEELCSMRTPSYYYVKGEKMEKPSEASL
The data set is described as follows: Ki determination and inhibition type on TR. The data set is classed as biochemical. The note with it: for binding mode (inhibition type): SigmaPlot Enzyme Kinetics Module; for Ki (Fig 7, uncompetitive mode of inhibition assumed): mean of two independent experiments, no unit printed in the figure, in µM. As to the method: (§2) The kinetic analysis of TR was performed in 384-well plates (Greiner Bio-One GmbH, Frickenhausen, Germany). The reaction mixture (50 μl) contained 5 mU/ml TR, 40 mM Hepes, pH 7.5, 1 mM EDTA, 300 μM NADPH (Sigma-Aldrich), 0.1 mg/ml BSA, and 0.01% Pluronic (BASF). The detergent was used to prevent the formation of droplets during pipetting and had no negative effects on the assay kinetics. In a volume of 30 μl, the assay components and the inhibitor were pre-incubated for 30 minutes and the reaction started by adding 20 μl of 375 μM TS2 resulting in final concentrations of 150 μM TS2 and 2% DMSO. The absorption decrease at 340 nm was measured by start and end point determination resulting in a delta of the optical density (delta A) for 30 min. All experiments were performed at room temperature. The TR concentration was kept constant at 5 mU/ml for all types of experiments. Therefore, after an initial calculation of the turnover number (kcat), only delta A values under identical conditions were compared. Initial screening was performed twice in two independent experiments.
Measurements were performed at 60, 80, 120, and 200 μM TS2 and five inhibitor concentrations resulting in 20 different data points per inhibitor. […] SigmaPlot 10 (Systat Software, Inc., San Jose, USA) with the Enzyme Kinetics Module was used to evaluate the inhibition type and Ki values. This software automatically estimates the initial parameters for different fit models, and uses the Marquardt-Levenberg algorithm to determine the parameter values. A detailed statistical report as well as a data report is generated to compare multiple models and graphs. Based on these statistics, the appropriate binding model can be selected. Graphs are created based on the models and the calculated parameter values instead of fitting each individual inhibitor concentration curve.

Data set [3] addresses T1, T. cruzi TR. The data set is described as follows: Mode of inhibition study: reversibility of binding (Amicon filter wash-out, then standard TR assay). The class given is biochemical.
Method: Therefore, Amicon Ultra 0.5 ml centrifugal filters with a cut-off of 10,000 MW (Millipore Corporation, Billerica, MA, USA) were washed with 400 μl TR assay buffer and centrifuged for 5 min at 12,500 rpm at room temperature. Remaining buffer was removed by placing the filter upside down into a microcentrifuge tube and centrifugation at 3,500 rpm for 2 min. […] The filter was centrifuged for 15 min at 12,500 rpm, washed three times with 400 μl buffer and centrifuged again. The retentate was collected by placing the filter upside down on a new tube and centrifugation at 3,500 rpm for 2 min. The recovered protein solutions were subjected to a standard TR assay.
A reaction mixture containing TR, inhibitor and NADPH was incubated for 30 minutes. […] Afterwards, the protein was separated from the low molecular mass components by centrifugation in an Amicon tube. Inhibitors with a reversible binding mode would be washed out, whereas irreversible binders remain bound to the protein. Finally, the recovered protein solution was subjected to a standard assay to determine the remaining activity. Two controls were run to determine the maximum activity that could be recovered. One contained the protein assay mixture without inhibitor, while the second control was a mixture of TR and the reversible inhibitor chlorhexidine. […] Subsequently the inhibitor type and constants were determined.
Another data set has as its target TR. Details: method as in ref 39 (mepacrine), 42 (BG237), 43 (chlorhexidine). The note with it: published data used for assay validation; ref 39 (mepacrine), 42 (BG237), 43 (chlorhexidine); cited from earlier work.
In data set [4] the target is T1, T. cruzi TR. The data set is described as follows: biochemical. As to the method: as §1
as §2, with “The detergent was used to prevent the formation of droplets during pipetting and had no negative effects on the assay kinetics.” left out
Eleven compound concentrations were used ranging from 100–0.01 μM or 200–0.004 μM. The compounds were freshly dissolved in DMSO. All measurements were performed twice in three independent series. Enzyme activities were plotted versus increasing inhibitor concentrations. IC50 values were calculated using the four-parameter equation model 205 and the option “unlock” from the XLfit add-in (IDBS, Guildford, United Kingdom) in Excel (Microsoft Corporation, Redmond, WA).
A robust NADPH-linked photometric assay was chosen that firstly had to be adapted to the high throughput screening format. The assay volume was reduced from the 1 ml cuvette format to 50 μl total volume in 384 well plates. […] In order to stabilize the enzyme and to prevent adhesion and reduce surface tension as well as the formation of droplets in the small wells, 0.1 mg/ml BSA and 0.01% detergent (Pluronic) were added to the reaction mixture.

Details of data set [5]: method as in ref 47 = [47]; 47 PubChem (2014) Chlorhexidine (CID 9552079), sections “Biomedical Effects and Tixicity” and “Biomolecular Interactions and Pathways”. Available: http://pubchem.ncbi.nlm.nih.gov/summary/summary.cgi?c. The settings on record: in words; cited from earlier work.
For the next data set, the system named is T. brucei. The settings on record: read-out: EC50, inhibition of proliferation of T. brucei; cited from earlier work.
Data set [6] has as its system T. brucei parasites transfected with pHD1700-TbTR (TR-Over-expressing cells). The data set is described as follows: EC50 determination by ATPlite 1step assay, TR-over-expressing cells. The data set is classed as cell-based. The note with it: Trypanosoma brucei. The procedure:
(§3) The ATPlite 1step assay system (PerkinElmer, Waltham, MA, USA) was used as described in Füller et al. to quantify T. brucei survival in medium-throughput dose-response series. Experiments were conducted in 96-well microplates (PerkinElmer, Waltham, MA, USA), each well containing 90 μl cell-culture and 10 μl compound. Initial cell densities were 2500 cells/ml. […] Unfortunately, compound 3 was no longer available for testing. […] For each compound, three identical plates were prepared, incubated at 37°C and analyzed after 24 h, 48 h, and 72 h, respectively. Samples from each cell-line left untreated were added to the plates prior to each measurement as additional controls. 50 μl of the ATPlite 1step solution (PerkinElmer, Waltham, MA, USA) were added to each well and the relative luminescence was measured immediately using a VICTOR Multilabel Plate Reader (PerkinElmer, Waltham, MA, USA) at room temperature. The values obtained were plotted against the logarithmic compound concentrations. A dose-response curve was generated from which EC50-values were calculated using the program PRISM 5.0 (GraphPad Software, La Jolla, CA, USA).
(§4) The parasites were cultured in the presence of different concentrations of the compounds and after 48 h and 72 h living cells were counted. […] The assay is based on the emission of light caused by the reaction of ATP with D-luciferin in the presence of luciferase, which is proportional to the amount of ATP serving as a marker for cell viability. […] Unfortunately, the T. brucei strain allowing the down-regulation of TR which was generated more than a decade ago in the laboratory of Christine Clayton is not available anymore. Therefore, this tet-inducible overexpressing system leading to up to three fold higher TR levels had to be used instead. Wild-type cells treated with 1 μg/ml tetracyclin were included to exclude any effect of the antibiotic on parasite proliferation.

In data set [7] the test system is bloodstream T. brucei wild-type cells. In words: EC50 determination by ATPlite 1step assay, wild-type cells. The settings on record: Trypanosoma brucei. The data set is classed as cell-based. The procedure:
as §3, §4

[8] abbreviates: HTS format, Ki ± SD (n = 3), Table 1, read-out: Ki Measured.
Setting [9] is: 60-200 μM TS2, two independent experiments.
Setting [10] is: 60-200 μM TS2, two independent experiments, read-out: Ki, assumed inhibitor type competitive.
Setting [11] is: 60-200 μM TS2, two independent experiments, read-out: Ki, assumed inhibitor type noncompetitive.

Molecules are shown by their SMILES. Where two headings read alike, the source gives them in different places. Where only a bound is given, the exact number is not on record here.

For `[H]/N=C(\N/C(=N/[H])NCCCCCCNC(=N)NC(=N)Nc1ccc(Cl)cc1)Nc1ccc(Cl)cc1` [Chlorhexidine, reference compound], in [1], the EC50 lay within 100 to 200 nM. Also, the Ki was 4000 ± 1000 nM at T. cruzi TR [2] (setting [8]) and 2000 nM on TR. The “binding mode (inhibition type)” value at T. cruzi TR [2] is listed as “competitive binding mode”. Further, the “reversible or irreversible binding to the enzyme” value on T. cruzi TR [3] (100 μM inhibitor, 300 μM NADPH, 30 min incubation, wash-out) is on record as “reversible”. Further, the “TR activity recovered compared to the initial kinetics” value on T. cruzi TR [3] (after wash-out of the inhibitor) was 70–80%. For the same molecule, the IC50 on T. cruzi TR [4] is 26000 ± 2000 nM. Further, in data set [5], the “permeability described in pharmacokinetic studies” value is recorded as “poor permeability”.

With `NS(=O)(=O)c1ccc(Nc2cc(Cl)c3nonc3c2[N+](=O)[O-])cc1` [Compound 4], the “EC50, inhibition of parasite proliferation (living cells counted)” value in data set [1] (after 48 h and 72 h) is recorded as “not active”. At T. cruzi TR [2] (setting [9]), the “Ki, assumed inhibitor type uncompetitive” value came to 800 ± 100 nM. Moreover, the Ki is 190 ± 70 nM on T. cruzi TR [2] (setting [10]) and 1110 ± 130 nM at T. cruzi TR [2] (setting [11]). The “Ki (Fig 7, uncompetitive mode of inhibition assumed)” value at T. cruzi TR [2] came to 0.80 ± 0.10. Moreover, half-maximal inhibition on T. cruzi TR [4] (IC50) was put at 480 ± 20 nM.

For the molecule `CCN(CC)CCCC(C)Nc1c2ccc(Cl)cc2nc2ccc(OC)cc12` (stereo not shown) [Mepacrine, reference compound], the Ki at T. cruzi TR [2] (setting [8]) was 20000 ± 5000 nM; at T. cruzi TR [2] (three independent experiments, fitted to the relevant binding model, read-out: measured Ki (Lineweaver-Burk plots, Fig 3)), 20700 ± 5470 nM; at TR, 19000 nM. For the same molecule, the “binding mode (inhibition type)” value on T. cruzi TR [2] is listed as “competitive binding mode”. This molecule also yielded an IC50 on T. cruzi TR [4] of over 200000 nM.

Regarding `CC1CS(=O)(=O)CCN1/N=C/c1ccc([N+](=O)[O-])o1` (stereo not shown) [nifurtimox], the EC50 in the data set with T. brucei is 2500 nM.

For `O=C(Nc1ccccc1)OCCSc1ccc([N+](=O)[O-])c2nonc12` [Compound 1], the “Ki, assumed inhibitor type uncompetitive” value at T. cruzi TR [2] (setting [9]) turned out to be 230 ± 20 nM. The Ki is 60 ± 30 nM at T. cruzi TR [2] (setting [10]) and 330 ± 30 nM at T. cruzi TR [2] (setting [11]). Besides, at T. cruzi TR [2], the “Ki (Fig 7, uncompetitive mode of inhibition assumed)” value is 0.23 ± 0.02. The molecule further displayed an IC50 against T. cruzi TR [4] of 270 ± 10 nM.

`O=[N+]([O-])c1c(Cl)cc(Cl)c2nsnc12` [Compound 3]: in data set [1], the EC50 is 5000 to 50000 nM. On T. cruzi TR [2] (setting [9]), the “Ki, assumed inhibitor type uncompetitive” value is 640 ± 60 nM. Also, the Ki on T. cruzi TR [2] (setting [10]) is 150 ± 90 nM; on T. cruzi TR [2] (setting [11]) it was 910 ± 80 nM. Besides, at T. cruzi TR [2], the “Ki (Fig 7, uncompetitive mode of inhibition assumed)” value is reported as 0.64 ± 0.06. This molecule came in with an IC50 against T. cruzi TR [4] of 610 ± 90 nM.

Regarding `O=[N+]([O-])c1c(Sc2ncnc3ccccc23)cc(Cl)c2nsnc12` [Compound 2], the EC50 in data set [1] was 5000 to 50000 nM; in data set [6] (24 h, read-out: EC50 24 h, TR-Over-expressing cells), 37600 ± 1900 nM; in data set [6] (48 h, read-out: EC50 48 h, TR-Over-expressing cells), 46900 ± 3100 nM; in data set [6] (72 h, read-out: EC50 72 h, TR-Over-expressing cells), 82000 ± 1600 nM; in data set [7] (read-out: EC50 24 h, Wild-type cells, ATPlite, 24 h, mean ± SD of three series), 56400 ± 2000 nM; in data set [7] (read-out: EC50 48 h, Wild-type cells, ATPlite, 48 h, mean ± SD of three series), 33000 ± 2200 nM. Further, the EC50 in data set [7] (read-out: EC50 at 24 h (ATPlite), 24 h, cell type not given) amounted to 42000 nM; in data set [7] (read-out: EC50 at 48 h (ATPlite), 48 h, cell type not given), 42000 nM; in data set [7] (72 h, cell type not given, read-out: EC50 after 72 h (ATPlite)), 58000 nM; in data set [7] (ATPlite, 72 h, series containing up to 150 μM compound = 1.5% DMSO, which affects cell viability, read-out: EC50 72 h, Wild-type cells) it was 55900 ± 1300 nM. On T. cruzi TR [2] (setting [9]), the “Ki, assumed inhibitor type uncompetitive” value was 880 ± 80 nM. In addition, the figures for the Ki at T. cruzi TR [2] (setting [10]) and at T. cruzi TR [2] (setting [11]) were 260 ± 120 nM and 1300 ± 120 nM, respectively. In addition, the “Ki (Fig 7, uncompetitive mode of inhibition assumed)” value on T. cruzi TR [2] was found to be 0.88 ± 0.08. The IC50 against T. cruzi TR [4] was found to be 580 ± 90 nM.
